From patent US7932255B2, “2-aminocarbonyl substituted piperazine or diaza-cyclic compounds as apoptosis protein inhibitors (lap) modulators” (Novartis AG, priority 2006, dated 2011)

target: T1, XIAP (Homo sapiens, UniProt P98170); assay: Disruption of the Smac peptide-(XIAP)BIR3 protein-protein interaction (Tables 2 and 3); assay type: binding; details: Series A compounds, Table 2; read-out: XIAP IC50
T1 construct: GST
Procedure: IC50 values for Series A compounds for XIAP. An assay capable of measuring disruption of the Smac peptide-(XIAP)BIR3 protein-protein interaction is established in the art as described in Example 2. In this assay IAP Inhibitor compounds compete with an immobilized Smac peptide for occupancy of the BIR3 binding pocket of XIAP. The rationale for this strategy results from the mutually exclusive nature of either Caspase 9 or Smac binding to the BIR3 pocket.
Assays are performed and IC50 values are calculated as follows: […]
IC50 values are calculated by logarithmic regression analysis of the percentage inhibition of each compound at 4 concentrations (usually 3- or 10-fold dilution series starting at 10 μM). In each experiment, the actual inhibition by reference compound is used for normalization of IC50 values to the basis of an average value of the reference inhibitor: Normalized IC50=measured IC50 average ref. IC50/measured ref. IC50
Activity determinations of compounds herein using the testing method described herein and as are well known in the art, are used with the following test compounds of formula (I). […] “Activity” as used herein is defined as having IC50 values for IAP target inhibition of less than 10 μM. Specifically, in the table:
IC50 values for Series B compounds are provided for XIAP. Assays are performed as described above using methods well known in the art.

T1 sequence (P98170 248-358 limits assumed, species assumed): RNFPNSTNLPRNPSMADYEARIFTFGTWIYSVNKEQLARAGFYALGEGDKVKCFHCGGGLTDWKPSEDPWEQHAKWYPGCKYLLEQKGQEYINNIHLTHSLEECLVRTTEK

Row | IC50 [µM] | SMILES
1 | < 10 | CN[C@@H](C)C(=O)N[C@H](C(=O)N1CCN(CCOC)C[C@H]1C(=O)NC1CCCc2ccccc21)C(C)C (stereo partly drawn) [Compound 38, (S)-4-(2-Methoxy-ethyl)-1-[(S)-3-methyl-2-((S)-2-methylamino-propionylamino)-butyryl]-piperazine-2-carboxylic acid (1,2,3,4-tetrahydro-naphthalen-1-yl)-amide]
2 | < 10 | CN[C@@H](C)C(=O)N[C@H](C(=O)N1CCN(Cc2ccc(C#N)cc2)C[C@H]1C(=O)NC1CCCc2ccccc21)C(C)C (stereo partly drawn) [Compound 43, (S)-4-(4-Cyano-benzyl)-1-[(S)-3-methyl-2-((S)-2-methylamino-propionylamino)-butyryl]-piperazine-2-carboxylic acid (1,2,3,4-tetrahydro-naphthalen-1-yl)-amide]
3 | < 10 | CN[C@@H](C)C(=O)N[C@H](C(=O)N1CCN(C(=O)NC(C)(C)C)C[C@H]1C(=O)NC1CCCc2ccccc21)C(C)C (stereo partly drawn) [Compound 39, (S)-4-[(S)-3-Methyl-2-((S)-2-methylamino-propionylamino)-butyryl]-piperazine-1,3-dicarboxylic acid 1-tert-butylamide 3-[(1,2,3,4-tetrahydro-naphthalen-1-yl)-amide]]
4 | < 10 | CN[C@@H](C)C(=O)N[C@H](C(=O)N1CCN(S(=O)(=O)C2CCCCC2)C[C@H]1C(=O)NC1CCCc2ccccc21)C(C)C (stereo partly drawn) [Compound 11, (S)-4-Cyclohexanesulfonyl-1-[(S)-3-methyl-2-((S)-2-methylamino-propionylamino)-butyryl]-piperazine-2-carboxylic acid (1,2,3,4-tetrahydro-naphthalen-1-yl)-amide]
5 | < 10 | CN[C@@H](C)C(=O)N[C@H](C(=O)N1CCN(C(=O)Nc2ccc(F)cc2)C[C@H]1C(=O)NC1CCCc2ccccc21)C(C)C (stereo partly drawn) [Compound 40, (S)-4-[(S)-3-Methyl-2-((S)-2-methylamino-propionylamino)-butyryl]-piperazine-1,3-dicarboxylic acid 1-[(4-fluoro-phenyl)-amide] 3-[(1,2,3,4-tetrahydro-naphthalen-1-yl)-amide]]
6 | < 10 | CN[C@@H](C)C(=O)N[C@H](C(=O)N1CCN(CCC(F)(F)F)C[C@H]1C(=O)NC1CCCc2ccccc21)C(C)C (stereo partly drawn) [Compound 20, (S)-1-[(S)-3-Methyl-2-((S)-2-methylamino-propionylamino)-butyryl]-4-(3,3,3-trifluoro-propyl)-piperazine-2-carboxylic acid (1,2,3,4-tetrahydro-naphthalen-1-yl)-amide]
7 | < 10 | CN[C@@H](C)C(=O)N[C@H](C(=O)N1CCN(Cc2cccc(Oc3ccccc3)c2)C[C@H]1C(=O)NC1CCCc2ccccc21)C(C)C (stereo partly drawn) [Compound 4, (S)-1-[(S)-3-Methyl-2-((S)-2-methylamino-propionylamino)-butyryl]-4-(3-phenoxy-benzyl)-piperazine-2-carboxylic acid (1,2,3,4-tetrahydro-naphthalen-1-yl)-amide]
8 | < 10 | CNC(C)C(=O)NC(C(=O)N1CCN(S(=O)(=O)c2ccccc2)CC1C(=O)NC1CCCc2ccccc21)C(C)C (centres unmarked) [Compound 2, 4-Benzenesulfonyl-1-[3-methyl-2-(2-methylamino-propionylamino)-butyryl]-piperazine-2-carboxylic acid (1,2,3,4-tetrahydro-naphthalen-1-yl)-amide]

The remaining lines, values behind:

Row | SMILES | IC50 [µM]
9 | CN[C@@H](C)C(=O)N[C@H](C(=O)N1CCN(Cc2ccc(OC(F)(F)F)cc2)C[C@H]1C(=O)NC1CCCc2ccccc21)C(C)C (stereo partly drawn) [Compound 23, (S)-1-[(S)-3-Methyl-2-((S)-2-methylamino-propionylamino)-butyryl]-4-(4-trifluoromethoxy-benzyl)-piperazine-2-carboxylic acid (1,2,3,4-tetrahydro-naphthalen-1-yl)-amide] | < 10
10 | CN[C@@H](C)C(=O)N[C@H](C(=O)N1CCN(C(=O)OCc2ccccc2)C[C@H]1C(=O)NC1CCCc2ccccc21)C(C)C (stereo partly drawn) [Compound 13, (S)-4-[(S)-3-Methyl-2-((S)-2-methylamino-propionylamino)-butyryl]-3-(1,2,3,4-tetrahydro-naphthalen-1-ylcarbamoyl)-piperazine-1-carboxylic acid benzyl ester] | < 10
11 | CN[C@@H](C)C(=O)N[C@H](C(=O)N1CCN(C(=O)Nc2ccccc2)C[C@H]1C(=O)NC1CCCc2ccccc21)C(C)C (stereo partly drawn) [Compound 41, (S)-4-[(S)-3-Methyl-2-((S)-2-methylamino-propionylamino)-butyryl]-piperazine-1,3-dicarboxylic acid 1-phenylamide 3-[(1,2,3,4-tetrahydro-naphthalen-1-yl)-amide]] | < 10
12 | CN[C@@H](C)C(=O)N[C@H](C(=O)N1CCN(CC2CCCC2)C[C@H]1C(=O)NC1CCCc2ccccc21)C(C)C (stereo partly drawn) [Compound 7, (S)-4-Cyclopentylmethyl-1-[(S)-3-methyl-2-((S)-2-methylamino-propionylamino)-butyryl]-piperazine-2-carboxylic acid (1,2,3,4-tetrahydro-naphthalen-1-yl)-amide] | < 10
13 | CC(C)[C@H](NC(=O)[C@H](C)N(C)C(=O)OC(C)(C)C)C(=O)N1CCN(Cc2ccccc2)C[C@H]1C(=O)N[C@@H]1CCCc2ccccc21 [Compound 57, [(S)-1-((S)-1-{(S)-4-Benzyl-2-[(R)-(1,2,3,4-tetrahydro-naphthalen-1-yl)carbamoyl]-piperazine-1-carbonyl}-2-methyl-propylcarbamoyl)-ethyl]-methyl-carbamic acid tert-butyl ester] | > 10
14 | CN[C@@H](C)C(=O)N[C@H](C(=O)N1CCN(c2ccc(F)cc2)C[C@H]1C(=O)NC1CCCc2ccccc21)C(C)C (stereo partly drawn) [Compound 44, (S)-4-(4-Fluoro-phenyl)-1-[(S)-3-methyl-2-((S)-2-methylamino-propionylamino)-butyryl]-piperazine-2-carboxylic acid (1,2,3,4-tetrahydro-naphthalen-1-yl)-amide] | < 10
15 | CN[C@@H](C)C(=O)N[C@H](C(=O)N1CCN(Cc2ccccc2)C[C@H]1C(=O)NC1CCCc2ccccc21)C(C)C (stereo partly drawn) [Compound 14, (S)-4-Benzyl-1-[(S)-3-methyl-2-((S)-2-methylamino-propionylamino)-butyryl]-piperazine-2-carboxylic acid (1,2,3,4-tetrahydro-naphthalen-1-yl)-amide] | < 10
16 | CN[C@@H](C)C(=O)N[C@H](C(=O)N1CCN(S(=O)(=O)c2sccc2-c2ccno2)C[C@H]1C(=O)NC1CCCc2ccccc21)C(C)C (stereo partly drawn) [Compound 42, (S)-4-(3-Isoxazol-5-yl-thiophene-2-sulfonyl)-1-[(S)-3-methyl-2-((S)-2-methylamino-propionylamino)-butyryl]-piperazine-2-carboxylic acid (1,2,3,4-tetrahydro-naphthalen-1-yl)-amide] | < 10
17 | CN[C@@H](C)C(=O)N[C@H](C(=O)N1CCN(Cc2ccc(NC(C)=O)cc2)C[C@H]1C(=O)NC1CCCc2ccccc21)C(C)C (stereo partly drawn) [Compound 16, (S)-4-(4-Acetylamino-benzyl)-1-[(S)-3-methyl-2-((S)-2-methylamino-propionylamino)-butyryl]-piperazine-2-carboxylic acid (1,2,3,4-tetrahydro-naphthalen-1-yl)-amide] | < 10
18 | CN[C@@H](C)C(=O)N[C@H](C(=O)N1CCN(Cc2cncs2)C[C@H]1C(=O)NC1CCCc2ccccc21)C(C)C (stereo partly drawn) [Compound 22, (S)-1-[(S)-3-Methyl-2-((S)-2-methylamino-propionylamino)-butyryl]-4-thiazol-5-ylmethyl-piperazine-2-carboxylic acid (1,2,3,4-tetrahydro-naphthalen-1-yl)-amide] | < 10
19 | CN[C@@H](C)C(=O)N[C@H](C(=O)N1CCN(C(=O)c2ccc(NC(C)=O)cc2)C[C@H]1C(=O)NC1CCCc2ccccc21)C(C)C (stereo partly drawn) [Compound 27, (S)-4-(4-Acetylamino-benzoyl)-1-[(S)-3-methyl-2-((S)-2-methylamino-propionylamino)-butyryl]-piperazine-2-carboxylic acid (1,2,3,4-tetrahydro-naphthalen-1-yl)-amide] | < 10

same assay, conditions: Series B compounds, Table 3; read-out: XIXP IC50

Row | IC50 [µM] | SMILES
20 | < 10 | CN[C@@H](C)C(=O)N[C@H](C(=O)N1CCN(Cc2ccccc2)C[C@H]1C(=O)N1Cc2ccccc2C1)C(C)C [Compound 85, (S)-N-{(S)-1-[(S)-4-Benzyl-2-(1,3-dihydro-isoindole-2-carbonyl)-piperazine-1-carbonyl]-2-methyl-propyl}-2-methylamino-propionamide]
21 | < 10 | CN[C@@H](C)C(=O)N[C@H](C(=O)N1CCN(Cc2ccccc2)C[C@H]1C(=O)NC1c2ccccc2-c2ccccc21)C(C)C [Compound 75, (S)-4-Benzyl-1-[(S)-3-methyl-2-((S)-2-methylamino-propionylamino)-butyryl]-piperazine-2-carboxylic acid (9H-fluoren-9-yl)-amide]

The remaining lines, values behind:

Row | SMILES | IC50 [µM]
22 | CN[C@@H](C)C(=O)N[C@H](C(=O)N1CCN(Cc2ccccc2)C[C@H]1C(=O)NCCc1ccncc1)C(C)C [Compound 69, (S)-4-Benzyl-1-[(S)-3-methyl-2-((S)-2-methylamino-propionylamino)-butyryl]-piperazine-2-carboxylic acid (2-pyridin-4-yl-ethyl)-amide] | > 10
23 | CN[C@@H](C)C(=O)N[C@H](C(=O)N1CCN(Cc2ccccc2)C[C@H]1C(=O)NCCc1cccc(F)c1)C(C)C [Compound 63, (S)-4-Benzyl-1-[(S)-3-methyl-2-((S)-2-methylamino-propionylamino)-butyryl]-piperazine-2-carboxylic acid [2-(3-fluoro-phenyl)-ethyl]-amide] | < 10
